Experimental data as given in patent publication US20250382344A1, “Soluble GLP1/GIP/NPY2 Receptor Triple Agonists” (Boehringer Ingelheim International GmH, priority 2024, published 2025).
Like-named read-outs stand apart in the source and are kept apart here.

Legend:
hNPY2R = target: T1, hNPY2R (Homo sapiens, UniProt P49146); assay: hNPY2R CreLuc assay in 0.5% and 100% plasma (HEK-293 CRE-luciferase reporter cells); assay type: cell-based; conditions: HEK-293 reporter cells
T1 construct: expressed in transfected cells; host or cells: HEK-293 CRE-luciferase reporter cells
T1 sequence (P49146 1-381): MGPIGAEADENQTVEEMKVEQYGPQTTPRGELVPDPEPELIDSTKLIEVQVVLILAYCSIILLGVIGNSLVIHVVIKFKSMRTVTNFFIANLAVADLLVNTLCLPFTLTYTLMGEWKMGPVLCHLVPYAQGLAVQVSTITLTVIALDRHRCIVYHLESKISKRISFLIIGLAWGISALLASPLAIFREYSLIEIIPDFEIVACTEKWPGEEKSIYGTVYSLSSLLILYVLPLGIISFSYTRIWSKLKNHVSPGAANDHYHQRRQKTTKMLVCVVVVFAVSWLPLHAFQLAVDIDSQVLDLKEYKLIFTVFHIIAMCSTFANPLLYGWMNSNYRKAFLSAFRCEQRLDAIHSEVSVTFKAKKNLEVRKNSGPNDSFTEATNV

hGIPR = target: T2, hGIPR (Homo sapiens, UniProt P48546); assay: hGIPR CreLuc assay in 0.5% and 100% plasma (CHO CRE-luciferase reporter cells); assay type: cell-based
T2 construct: expressed in transfected cells; host or cells: CHO CRE-luciferase reporter cells
T2 sequence (P48546 22-466): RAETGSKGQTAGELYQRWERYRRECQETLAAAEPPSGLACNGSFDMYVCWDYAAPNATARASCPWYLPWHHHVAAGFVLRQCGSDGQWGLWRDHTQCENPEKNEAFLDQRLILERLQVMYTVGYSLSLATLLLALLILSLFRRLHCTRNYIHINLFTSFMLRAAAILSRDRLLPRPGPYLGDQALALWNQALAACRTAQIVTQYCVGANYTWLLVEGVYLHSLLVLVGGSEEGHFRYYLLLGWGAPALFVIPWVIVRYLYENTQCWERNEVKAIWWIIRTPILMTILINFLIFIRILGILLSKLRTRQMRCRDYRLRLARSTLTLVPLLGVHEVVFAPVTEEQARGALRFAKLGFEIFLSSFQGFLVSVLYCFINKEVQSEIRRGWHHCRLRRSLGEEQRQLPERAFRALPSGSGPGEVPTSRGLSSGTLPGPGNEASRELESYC

[1] = Solubility in 0.1 M phosphate buffer at pH 7; assay type: physicochemical; conditions: 0.1 M phosphate buffer at pH 7, 10 mg/mL final peptide concentration, shaking 2 hours at room temperature, peptides as TFA-salts; measured sample pH 6.5-7.0
hGLP1R = target: T3, hGLP1R (Homo sapiens, UniProt P43220); assay: hGLP1R CreLuc assay in 0.5% and 100% plasma (HEK-293 CRE-luciferase reporter cells); assay type: cell-based; conditions: HEK-293 reporter cells
T3 construct: expressed in transfected cells; host or cells: HEK-293 CRE-luciferase reporter cells

[2] = 0.5% human plasma, read-out: hNPY2R 0.5% hP
[3] = 0.5% human plasma, read-out: hGIPR 0.5% hP
[4] = 0.5% human plasma, read-out: hGLP1R 0.5% hP
[5] = 100% human plasma, read-out: hNPY2R 100% hP
[6] = 100% human plasma, read-out: hGIPR 100% hP
[7] = 100% human plasma, read-out: hGLP1R 100% hP

T3 sequence (P43220 24-463): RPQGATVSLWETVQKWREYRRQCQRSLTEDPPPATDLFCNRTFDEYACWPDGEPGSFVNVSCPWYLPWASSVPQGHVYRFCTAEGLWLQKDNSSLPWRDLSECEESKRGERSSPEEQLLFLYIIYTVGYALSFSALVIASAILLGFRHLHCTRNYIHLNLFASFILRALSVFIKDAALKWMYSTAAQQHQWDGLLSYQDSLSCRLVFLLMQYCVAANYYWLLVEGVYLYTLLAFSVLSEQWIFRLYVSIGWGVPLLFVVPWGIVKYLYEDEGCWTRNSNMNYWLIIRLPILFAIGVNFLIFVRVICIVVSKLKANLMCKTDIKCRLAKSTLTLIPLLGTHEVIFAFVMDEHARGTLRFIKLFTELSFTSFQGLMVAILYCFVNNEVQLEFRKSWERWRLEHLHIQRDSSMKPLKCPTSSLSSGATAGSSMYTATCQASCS

Structure (SMILES) | EC50 (hNPY2R; [2]) | EC50 (hGIPR; [3]) | solubility at 2 h [1] | EC50 (hGLP1R; [4]) | EC50 (hNPY2R; [5]) | EC50 (hGIPR; [6]) | EC50 (hGLP1R; [7])
CC[C@H](C)[C@H](NC(=O)[C@H](CC(C)C)NC(=O)[C@H](Cc1c[nH]cn1)NC(=O)[C@H](CCCNC(=N)N)NC(=O)[C@@H](NC(=O)[C@H](Cc1ccccc1)NC(=O)[C@H](CCC(=O)O)NC(=O)C(C)(C)NC(=O)[C@H](CCC(N)=O)NC(=O)[C@H](C)NC(=O)[C@H](CCC(N)=O)NC(=O)[C@H](CCCCN)NC(=O)[C@H](CC(=O)O)NC(=O)[C@H](CC(C)C)NC(=O)C(C)(C)NC(=O)[C@@H](NC(=O)[C@H](CO)NC(=O)[C@H](Cc1ccc(O)cc1)NC(=O)[C@H](CC(=O)O)NC(=O)[C@H](CO)NC(=O)[C@@H](NC(=O)[C@H](Cc1ccccc1)NC(=O)[C@@H](NC(=O)CNC(=O)[C@H](CCC(=O)O)NC(=O)C(C)(C)NC(=O)[C@@H](N)Cc1ccc(O)cc1)[C@@H](C)O)[C@@H](C)O)[C@@H](C)CC)C(C)C)C(=O)N[C@@H](CC(N)=O)C(=O)N[C@@H](CCCCNC(=O)[C@@H](N)CCCCNC(=O)CC[C@H](NC(=O)CC[C@H](NC(=O)CC[C@H](NC(=O)CC[C@H](NC(=O)CC[C@H](NC(=O)CC[C@H](NC(=O)CCCCCCCCCCCCCCCCC(=O)O)C(=O)O)C(=O)O)C(=O)O)C(=O)O)C(=O)O)C(=O)O)C(=O)NC(C)(C)C(=O)N[C@H](C(=O)N[C@@H](CCCNC(=N)N)C(=O)N[C@@H](CCC(N)=O)C(=O)N[C@@H](CCCNC(=N)N)C(=O)N[C@@H](Cc1ccc(O)cc1)C(N)=O)[C@@H](C)O [Compound 131, Y-Aib-E-G-T-F-T-S-D-Y-S-I-Aib-L-D-K-Q-A-Q-Aib-E-F-V-R-H-L-I-N-K(1,3)-Aib-T-R-Q-R-Y-NH2.C18DA-gGlu-gGlu-gGlu-gGlu-gGlu-gGlu-eLys(1,2)] | 17.5 nM | 0.3 nM | 9000 µg/mL | 0.1 nM | – | – | –
CC[C@H](C)[C@H](NC(=O)[C@H](CC(C)C)NC(=O)[C@H](Cc1c[nH]cn1)NC(=O)[C@H](CCCNC(=N)N)NC(=O)[C@@H](NC(=O)[C@H](Cc1ccccc1)NC(=O)[C@H](CCC(=O)O)NC(=O)C(C)(C)NC(=O)[C@H](CCC(N)=O)NC(=O)[C@H](C)NC(=O)[C@H](CCC(N)=O)NC(=O)[C@H](CCCCN)NC(=O)[C@H](CCC(=O)O)NC(=O)[C@H](CC(C)C)NC(=O)C(C)(C)NC(=O)[C@@H](NC(=O)[C@H](CO)NC(=O)[C@H](Cc1ccc(O)cc1)NC(=O)[C@H](CC(=O)O)NC(=O)[C@H](CO)NC(=O)[C@@H](NC(=O)[C@H](Cc1ccccc1)NC(=O)[C@@H](NC(=O)CNC(=O)[C@H](CCC(=O)O)NC(=O)C(C)(C)NC(=O)[C@@H](N)Cc1ccc(O)cc1)[C@@H](C)O)[C@@H](C)O)[C@@H](C)CC)C(C)C)C(=O)N[C@@H](CC(N)=O)C(=O)N[C@@H](CCCCNC(=O)COCCOCCNC(=O)COCCOCCNC(=O)CC[C@H](NC(=O)CC[C@H](NC(=O)CC[C@H](NC(=O)CC[C@H](NC(=O)CCCCCCCCCCCCCCCCC(=O)O)C(=O)O)C(=O)O)C(=O)O)C(=O)O)C(=O)NC(C)(C)C(=O)N[C@H](C(=O)N[C@@H](CCCNC(=N)N)C(=O)N[C@@H](CCC(N)=O)C(=O)N[C@@H](CCCNC(=N)N)C(=O)N[C@@H](Cc1ccc(O)cc1)C(N)=O)[C@@H](C)O [Compound 73, Y-Aib-E-G-T-F-T-S-D-Y-S-I-Aib-L-E-K-Q-A-Q-Aib-E-F-V-R-H-L-I-N-K(1,3)-Aib-T-R-Q-R-Y-NH2.C18DA-gGlu-gGlu-gGlu-gGlu-OEG-OEG(1,2)] | – | 0.4 nM | 4900 µg/mL | 0.4 nM | 136 nM | 5.9 nM | –
CC[C@H](C)[C@H](NC(=O)[C@H](CC(C)C)NC(=O)[C@H](Cc1c[nH]cn1)NC(=O)[C@H](CCCNC(=N)N)NC(=O)[C@@H](NC(=O)[C@H](Cc1ccccc1)NC(=O)[C@H](C)NC(=O)C(C)(C)NC(=O)[C@H](CCC(=O)O)NC(=O)[C@H](C)NC(=O)[C@H](CCC(N)=O)NC(=O)[C@H](CCCCN)NC(=O)[C@H](CCC(=O)O)NC(=O)[C@H](CC(C)C)NC(=O)[C@](C)(CC(C)C)NC(=O)[C@@H](NC(=O)[C@H](CO)NC(=O)[C@H](Cc1ccc(O)cc1)NC(=O)[C@H](CC(=O)O)NC(=O)[C@H](CO)NC(=O)[C@@H](NC(=O)[C@H](Cc1ccccc1)NC(=O)[C@@H](NC(=O)CNC(=O)[C@H](CCC(=O)O)NC(=O)C(C)(C)NC(=O)[C@@H](N)Cc1ccc(O)cc1)[C@@H](C)O)[C@@H](C)O)[C@@H](C)CC)C(C)C)C(=O)N[C@@H](CC(N)=O)C(=O)N[C@@H](CCCCNC(=O)[C@@H](N)CCCCNC(=O)CC[C@H](NC(=O)CC[C@H](NC(=O)CC[C@H](NC(=O)CC[C@H](NC(=O)CC[C@H](NC(=O)CC[C@H](NC(=O)CCCCCCCCCCCCCCCCCCC(=O)O)C(=O)O)C(=O)O)C(=O)O)C(=O)O)C(=O)O)C(=O)O)C(=O)NC(C)(C)C(=O)N[C@H](C(=O)N[C@@H](CCCNC(=N)N)C(=O)N[C@@H](CCC(N)=O)C(=O)N[C@@H](CCCNC(=N)N)C(=O)N[C@@H](Cc1ccc(O)cc1)C(N)=O)[C@@H](C)O [Compound 103, Y-Aib-E-G-T-F-T-S-D-Y-S-I-aMeL-L-E-K-Q-A-E-Aib-A-F-V-R-H-L-I-N-K(1,3)-Aib-T-R-Q-R-Y-NH2.C20DA-gGlu-gGlu-gGlu-gGlu-gGlu-gGlu-eLys(1,2)] | – | 0.2 nM | 9700 µg/mL | 0.4 nM | 131 nM | – | 0.6 nM

The remaining lines, values ahead:

EC50 (hNPY2R; [2]) | EC50 (hGIPR; [3]) | solubility at 2 h [1] | EC50 (hGLP1R; [4]) | EC50 (hNPY2R; [5]) | EC50 (hGIPR; [6]) | EC50 (hGLP1R; [7]) | Structure (SMILES)
40 nM | 0.1 nM | 8200 µg/mL | 0.1 nM | – | – | – | CC[C@H](C)[C@H](NC(=O)[C@H](CC(C)C)NC(=O)[C@H](Cc1ccc(O)cc1)NC(=O)[C@H](CCCNC(=N)N)NC(=O)[C@@H](NC(=O)[C@H](Cc1ccccc1)NC(=O)[C@H](C)NC(=O)C(C)(C)NC(=O)[C@H](CCC(N)=O)NC(=O)[C@H](C)NC(=O)[C@H](CCC(N)=O)NC(=O)[C@H](CCCCN)NC(=O)[C@H](CC(=O)O)NC(=O)[C@H](CC(C)C)NC(=O)C(C)(C)NC(=O)[C@@H](NC(=O)[C@H](CO)NC(=O)[C@H](Cc1ccc(O)cc1)NC(=O)[C@H](CC(=O)O)NC(=O)[C@H](CO)NC(=O)[C@@H](NC(=O)[C@H](Cc1ccccc1)NC(=O)[C@@H](NC(=O)CNC(=O)[C@H](CCC(=O)O)NC(=O)C(C)(C)NC(=O)[C@@H](N)Cc1ccc(O)cc1)[C@@H](C)O)[C@@H](C)O)[C@@H](C)CC)C(C)C)C(=O)N[C@@H](CC(N)=O)C(=O)N[C@@H](CCCCNC(=O)[C@@H](N)CCCCNC(=O)CC[C@H](NC(=O)CC[C@H](NC(=O)CC[C@H](NC(=O)CC[C@H](NC(=O)CC[C@H](NC(=O)CC[C@H](NC(=O)CCCCCCCCCCCCCCCCC(=O)O)C(=O)O)C(=O)O)C(=O)O)C(=O)O)C(=O)O)C(=O)O)C(=O)NC(C)(C)C(=O)N[C@H](C(=O)N[C@@H](CCCNC(=N)N)C(=O)N[C@@H](CCC(N)=O)C(=O)N[C@@H](CCCNC(=N)N)C(=O)N[C@@H](Cc1ccc(O)cc1)C(N)=O)[C@@H](C)O [Compound 153, Y-Aib-E-G-T-F-T-S-D-Y-S-I-Aib-L-D-K-Q-A-Q-Aib-A-F-V-R-Y-L-I-N-K(1,3)-Aib-T-R-Q-R-Y-NH2.C18DA-gGlu-gGlu-gGlu-gGlu-gGlu-gGlu-eLys(1,2)]
– | 0.5 nM | 10300 µg/mL | – | 89.8 nM | 5.6 nM | 7 nM | CC[C@H](C)[C@H](NC(=O)[C@H](CC(C)C)NC(=O)[C@H](Cc1c[nH]cn1)NC(=O)[C@H](CCCNC(=N)N)NC(=O)[C@@H](NC(=O)[C@H](Cc1ccccc1)NC(=O)[C@H](C)NC(=O)[C@H](Cc1ccc(O)cc1)NC(=O)[C@H](CCC(N)=O)NC(=O)[C@H](C)NC(=O)[C@H](CCC(N)=O)NC(=O)[C@H](CCCCN)NC(=O)[C@H](CCC(=O)O)NC(=O)[C@H](CC(C)C)NC(=O)C(C)(C)NC(=O)[C@@H](NC(=O)[C@H](CO)NC(=O)[C@H](Cc1ccc(O)cc1)NC(=O)[C@H](CC(=O)O)NC(=O)[C@H](CO)NC(=O)[C@@H](NC(=O)[C@H](Cc1ccccc1)NC(=O)[C@@H](NC(=O)CNC(=O)[C@H](CCC(=O)O)NC(=O)C(C)(C)NC(=O)[C@@H](N)Cc1ccc(O)cc1)[C@@H](C)O)[C@@H](C)O)[C@@H](C)CC)C(C)C)C(=O)N[C@@H](CC(N)=O)C(=O)N[C@@H](CCCCNC(=O)[C@@H](N)CCCCNC(=O)CC[C@H](NC(=O)CC[C@H](NC(=O)CC[C@H](NC(=O)CC[C@H](NC(=O)CC[C@H](NC(=O)CC[C@H](NC(=O)CCCCCCCCCCCCCCCCC(=O)O)C(=O)O)C(=O)O)C(=O)O)C(=O)O)C(=O)O)C(=O)O)C(=O)NC(C)(C)C(=O)N[C@H](C(=O)N[C@@H](CCCNC(=N)N)C(=O)N[C@@H](CCC(N)=O)C(=O)N[C@@H](CCCNC(=N)N)C(=O)N[C@@H](Cc1ccc(O)cc1)C(N)=O)[C@@H](C)O [Compound 151, Y-Aib-E-G-T-F-T-S-D-Y-S-I-Aib-L-E-K-Q-A-Q-Y-A-F-V-R-H-L-I-N-K(1,3)-Aib-T-R-Q-R-Y-NH2.C18DA-gGlu-gGlu-gGlu-gGlu-gGlu-gGlu-eLys(1,2)]
